Assay results: patent US7977322B2 (Vertex Pharmaceuticals Incorporated, priority 2004, dated 2011)

Target: T1, ΔF508-CFTR (Homo sapiens, UniProt P13569, DEL508-508)
T1 construct: expressed in transfected cells
Experiment: Membrane potential optical (FRET/VIPR) assay, identification of correction compounds
Assay type: cell-based
Conditions: Table 3, assay not given; for Emax: read-out: % Activity / % Efficacy (relative efficacy)
Outline: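 NIH3T3 mouse fibroblasts stably expressing ΔF508-CFTR were exposed to compound for 16 h at 37° C in serum-free medium, then loaded with DiSBAC2(3)/CC2-DMPE. After addition of 10 μM forskolin plus 20 μM genistein in Cl⁻-free gluconate bath (pH 7.4), depolarization from Cl⁻ efflux was read by FRET (VIPR II).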

T1 sequence (P13569 with tags, fused parts or gaps DEL508-508): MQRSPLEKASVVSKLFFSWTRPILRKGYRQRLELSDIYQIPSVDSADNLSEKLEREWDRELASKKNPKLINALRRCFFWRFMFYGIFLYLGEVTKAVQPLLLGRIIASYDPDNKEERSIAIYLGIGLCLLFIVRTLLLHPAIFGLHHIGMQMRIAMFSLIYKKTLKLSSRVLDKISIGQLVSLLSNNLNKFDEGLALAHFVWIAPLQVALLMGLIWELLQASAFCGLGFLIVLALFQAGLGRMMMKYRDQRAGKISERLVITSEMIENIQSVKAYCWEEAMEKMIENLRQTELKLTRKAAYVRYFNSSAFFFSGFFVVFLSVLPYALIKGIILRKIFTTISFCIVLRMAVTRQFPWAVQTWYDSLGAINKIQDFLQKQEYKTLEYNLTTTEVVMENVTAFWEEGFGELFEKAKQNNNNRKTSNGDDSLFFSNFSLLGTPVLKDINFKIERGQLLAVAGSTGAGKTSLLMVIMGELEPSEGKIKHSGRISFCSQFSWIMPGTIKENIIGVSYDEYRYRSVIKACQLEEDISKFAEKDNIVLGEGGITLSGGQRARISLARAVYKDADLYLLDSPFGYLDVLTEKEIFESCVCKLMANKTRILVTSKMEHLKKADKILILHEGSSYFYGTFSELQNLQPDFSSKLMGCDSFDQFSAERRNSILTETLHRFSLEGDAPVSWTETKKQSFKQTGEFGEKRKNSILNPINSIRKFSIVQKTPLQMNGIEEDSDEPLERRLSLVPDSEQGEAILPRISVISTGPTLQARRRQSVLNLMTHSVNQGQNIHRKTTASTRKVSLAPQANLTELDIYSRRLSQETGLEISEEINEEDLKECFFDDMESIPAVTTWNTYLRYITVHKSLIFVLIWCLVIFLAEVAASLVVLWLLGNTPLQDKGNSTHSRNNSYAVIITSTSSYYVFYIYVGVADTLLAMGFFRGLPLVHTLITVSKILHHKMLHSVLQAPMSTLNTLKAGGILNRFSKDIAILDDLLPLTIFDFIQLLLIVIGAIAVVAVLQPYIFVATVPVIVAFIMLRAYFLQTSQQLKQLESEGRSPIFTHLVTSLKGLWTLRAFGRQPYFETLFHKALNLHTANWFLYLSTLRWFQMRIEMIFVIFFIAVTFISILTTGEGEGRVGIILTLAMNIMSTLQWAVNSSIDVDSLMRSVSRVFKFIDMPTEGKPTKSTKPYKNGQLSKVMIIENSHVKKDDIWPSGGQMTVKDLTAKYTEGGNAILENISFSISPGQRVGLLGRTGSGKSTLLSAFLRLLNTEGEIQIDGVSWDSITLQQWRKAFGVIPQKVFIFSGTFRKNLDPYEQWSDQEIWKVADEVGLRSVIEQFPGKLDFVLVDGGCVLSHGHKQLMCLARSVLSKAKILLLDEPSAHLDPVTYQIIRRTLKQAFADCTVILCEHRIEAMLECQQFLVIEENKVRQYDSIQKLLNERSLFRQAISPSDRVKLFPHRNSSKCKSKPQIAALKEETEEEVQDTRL

| SMILES | % Activity / % Efficacy (relative efficacy) | EC50 [µM] | Emax [%] |
| --- | --- | --- | --- |
| O=C(Nc1ncc(Cc2ccccc2Cl)s1)C1(c2ccc(F)c(F)c2)CC1 [Example 199] | +++ (“+++” means>100%) | < 10 |  |
| O=C1NOC[C@@H]1NC(c1cnc(NC(=O)C2(c3ccc4c(c3)OCO4)CC2)s1)c1ccccc1Cl (stereo partly drawn) [Example 407] |  | 10 to 25 | 25 to 100 |
| NC(=O)C1CCCN1C(Cc1ccccc1Cl)c1cnc(NC(=O)C2(c3ccc4c(c3)OCO4)CC2)s1 (stereo not drawn) [Example 458] |  | < 10 | > 100 |
| O=C(Nc1ncc(C(NCc2ccco2)c2ccccc2Cl)s1)C1(c2ccc3c(c2)OCO3)CC1 (stereo not drawn) [Example 412] |  | < 10 | > 100 |
| CC(C)[C@H](CO)NC(c1cnc(NC(=O)C2(c3ccc4c(c3)OCO4)CC2)s1)c1ccccc1Cl (stereo partly drawn) [Example 440] |  | < 10 | > 100 |
| COc1ccc(C2(C(=O)Nc3cnc(Cc4ccccc4Cl)s3)CC2)cc1 [Example 270] | ++ (“++” means between 25% to 100%) | < 10 |  |
| O=C(Nc1ncc(C(c2ccccc2C(F)(F)F)N2CC[C@@H](O)C2)s1)C1(c2ccc3c(c2)OCO3)CC1 (stereo partly drawn) [Example 464] |  | < 10 | > 100 |
| CN(C)C(c1ccccc1)c1cnc(NC(=O)C2(c3ccc4c(c3)OCO4)CC2)s1 (stereo not drawn) [Example 356] |  | 10 to 25 | > 100 |
| CC(C)(C)C(c1cnc(NC(=O)C2(c3ccc4c(c3)OCO4)CC2)s1)N1CCC[C@H]1C(N)=O (stereo partly drawn) [Example 384] |  | 10 to 25 | > 100 |
| CCC(c1cnc(NC(=O)C2(c3ccc4c(c3)OCO4)CC2)s1)N1CCC[C@H]1COC (stereo partly drawn) [Example 404] |  | 10 to 25 | > 100 |
| CCOC(=O)c1nc(NC(=O)C2(c3ccc4c(c3)OCO4)CC2)sc1Cc1ccccc1OC [Example 202] | +++ (“+++” means>100%) | < 10 |  |
| COc1ccc(C(c2cnc(NC(=O)C3(c4ccc5c(c4)OCO5)CC3)s2)N2CC[C@@H](O)C2)cc1 (stereo partly drawn) [Example 352] |  | 10 to 25 | > 100 |
| O=C(Nc1ncc(C(NCCCn2ccnc2)c2ccccc2Cl)s1)C1(c2ccc3c(c2)OCO3)CC1 (stereo not drawn) [Example 408] |  | < 10 | 25 to 100 |
| O=C(Nc1ncc(C(OCCN2CCCC2)c2ccccc2Cl)s1)C1(c2ccc3c(c2)OCO3)CC1 (stereo not drawn) [Example 255] |  | < 10 |  |
| COc1ccc(C2(C(=O)Nc3ncc(C(c4ccccc4Cl)N4CC[C@@H](O)C4)s3)CC2)cc1 (stereo partly drawn) [Example 420] |  | < 10 | > 100 |
| Cc1nn(-c2ccccc2)c(NC(=O)C2(c3ccc4c(c3)OCO4)CC2)c1-c1ccccc1 [Example 291] |  | 10 to 25 | 25 to 100 |
| CS(=O)(=O)c1ccc(C(c2cnc(NC(=O)C3(c4ccc5c(c4)OCO5)CC3)s2)N2CCCCC2)cc1 (stereo not drawn) [Example 388] |  | < 10 | > 100 |
| COc1ccc(C2(C(=O)Nc3ncc(C)s3)CC2)cc1 [Example 64] | +++ (“+++” means>100%) | < 10 |  |
| O=C(Nc1ncc(C(c2ccccc2Cl)N2CC[C@@H](O)C2)s1)C1(c2ccc(C(F)(F)F)cc2)CC1 (stereo partly drawn) [Example 445] |  | < 10 | > 100 |
| O=C(Nc1ncc(C(c2ccccc2F)N2CC[C@@H](O)C2)s1)C1(c2ccc3c(c2)OCO3)CC1 (stereo partly drawn) [Example 472] |  | < 10 | > 100 |
| CC(C)(C)C(c1cnc(NC(=O)C2(c3ccc4c(c3)OCO4)CC2)s1)N1CCOCC1 (stereo not drawn) [Example 394] |  | < 10 | > 100 |
| O=C(Nc1ncc(C2(c3ccccc3)CCCC2)s1)C1(c2ccc3c(c2)OCO3)CC1 [Example 111] | +++ (“+++” means>100%) | < 10 |  |
| CCC[C@H](CO)NC(c1cnc(NC(=O)C2(c3ccc4c(c3)OCO4)CC2)s1)c1ccccc1Cl (stereo partly drawn) [Example 489] |  | < 10 | > 100 |
| COc1ccccc1Cc1cnc(NC(=O)C2(c3ccc(SC)cc3)CC2)s1 [Example 173] | +++ (“+++” means>100%) | < 10 |  |
| O=C(Nc1ncc(C(Cc2ccccc2Cl)N2CCCC2)s1)C1(c2ccc3c(c2)OCO3)CC1 (stereo not drawn) [Example 453] |  | < 10 | 25 to 100 |
| COc1ccc(C2(C(=O)Nc3ncc(Cc4ccccc4Cl)s3)CC2)cc1OC [Example 55] | +++ (“+++” means>100%) | < 10 |  |
| O=C(Nc1ncc(C(c2ccccc2Cl)N2CC[C@@H](O)C2)s1)C1(c2cccc(C(F)(F)F)c2)CC1 (stereo partly drawn) [Example 441] |  | < 10 | 25 to 100 |
| O=C(Nc1ncc(C(c2cccc3c2OC(F)(F)O3)N2CCCC2)s1)C1(c2ccc3c(c2)OCO3)CC1 (stereo not drawn) [Example 494] |  | < 10 | 25 to 100 |
| Nc1ccccc1Sc1cnc(NC(=O)C2(c3ccc4c(c3)OCO4)CC2)s1 [Example 98] | +++ (“+++” means>100%) | < 10 |  |
